Results: US20100222340A1, “SUBSTITUTED PYRIDO [1,2-a] ISOQUINOLINE DERIVATIVES” (priority 2004, published 2010)
Structures can show the parent of a compound that is named as a salt.

Each compound was assayed against T1, human DPP-IV (Homo sapiens, UniProt P27487) (assay: DPP-IV activity assay (fluorogenic / colorimetric), IC50 determination). Details: natural human DPP-IV from human plasma pool or recombinant human DPP-IV; 37° C., pH 7.8.
T1 construct: made in house; host or cells: Pichia pastoris
Assay type: biochemical
Method: Activity of DPP-IV inhibitors are tested with natural human DPP-IV derived from a human plasma pool or with recombinant human DPP-IV. Human citrate plasma from different donors is pooled, filtered through a 0.2 micron membrane under sterile conditions and aliquots of 1 ml are shock frozen and stored at −120° C. until used. In the colorimetric DPP-IV assay 5 to 10 μl human plasma and in the fluorometric assay 1.0 μl of human plasma in a total assay volume of 100 μl is used as an enzyme source. The cDNA of the human DPP-IV sequence of amino acid 31- to 766, restricted for the N-terminus and the transmembrane domain, is cloned into Pichia pastoris. Human DPP-IV is expressed and purified from the culture medium using conventional column chromatography including size exclusion and anion and cation chromatography. The purity of the final enzyme preparation of Coomassie blue SDS-PAGE is >95%. In the colorimetric DPP-IV assay 20 ng rec.-h DPP-IV and in the fluorometric assay 2 ng rec-h DPP-IV in a total assay volume of 100 μl is used as an enzyme source.
In the fluorogenic assay Ala-Pro-7-amido-4-trifluoromethylcoumarin (Calbiochem No 125510) is used as a substrate. A 20 mM stock solution in 10% DMF/H2O is stored at −20° C. until use. […]
Fluorescence is detected in a Perkin Elmer Luminescence Spectrometer LS 50B at an excitation wavelength of 400 nm and an emission wavelength of 505 nm continuously every 15 seconds for 10 to 30 minutes. Initial rate constants are calculated by best fit linear regression. The absorption of pNA liberated from the colorimetric substrate is detected in a Packard SpectraCount at 405 nm continuously every 2 minutes for 30 to 120 minutes. Initial rate constants are calculated by best fit linear regression. […]
IC50 determinations of test compounds are calculated by non-linear best fit regression of the DPP-IV inhibition of at least 5 different compound concentrations. Kinetic parameters of the enzyme reaction are calculated at least 5 different substrate concentrations and at least 5 different test compound concentrations.

T1 sequence (P27487 31-766): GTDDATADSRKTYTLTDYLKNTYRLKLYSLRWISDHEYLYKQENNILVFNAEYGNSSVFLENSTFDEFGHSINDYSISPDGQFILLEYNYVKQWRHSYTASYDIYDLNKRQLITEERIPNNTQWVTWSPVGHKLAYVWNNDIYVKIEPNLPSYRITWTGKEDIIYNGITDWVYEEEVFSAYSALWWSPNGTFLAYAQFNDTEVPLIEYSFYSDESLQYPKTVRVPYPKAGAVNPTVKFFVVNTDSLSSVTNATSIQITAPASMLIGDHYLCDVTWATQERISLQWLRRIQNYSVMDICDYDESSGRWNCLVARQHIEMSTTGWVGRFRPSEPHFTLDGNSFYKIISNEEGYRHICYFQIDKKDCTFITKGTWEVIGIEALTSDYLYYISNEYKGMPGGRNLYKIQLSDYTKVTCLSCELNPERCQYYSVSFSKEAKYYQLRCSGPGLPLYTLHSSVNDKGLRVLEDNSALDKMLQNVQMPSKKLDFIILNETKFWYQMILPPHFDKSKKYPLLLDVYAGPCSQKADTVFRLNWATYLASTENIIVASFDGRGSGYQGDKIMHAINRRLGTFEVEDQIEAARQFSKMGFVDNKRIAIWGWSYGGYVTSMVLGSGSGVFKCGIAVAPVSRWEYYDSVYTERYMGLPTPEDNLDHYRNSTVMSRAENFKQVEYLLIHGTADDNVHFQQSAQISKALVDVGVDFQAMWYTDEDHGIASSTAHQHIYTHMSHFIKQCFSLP

Structure (SMILES)	IC50 [nM]
COc1ccc2c(c1OCC(=O)N(C)C)CCN1C[C@H](c3cccc(C)c3)[C@@H](N)C[C@@H]21 (racemic) [Example 48, rac-2-((2S,3S,11bS)-2-Amino-9-methoxy-3-m-tolyl-1,3,4,6,7,11b-hexahydro-2H-pyrido[2,1-a]isoquinolin-8-yloxy)-N,N-dimethyl-acetamide]	0.3
COc1cc2c(cc1OCC(=O)Nc1nn[nH]n1)CCN1C[C@H](c3cc(C)ccn3)[C@@H](N)C[C@@H]21 (racemic) [Example 13, (2S,3S,11bS)- and (2R,3R,11bR)-2-[2-Amino-10-methoxy-3-(4-methyl-pyridin-2-yl)-1,3,4,6,7,11b-hexahydro-2H-pyrido[2,1-a]isoquinolin-9-yloxy]-N-(2H-tetrazol-5-yl)-acetamide hydrochloride]	1.1
COc1cc2c(cc1OCC(N)=O)CCN1C[C@H](c3cc(C)ccc3C)[C@@H](N)C[C@@H]21 (racemic) [Example 8, (2S,3S,11bS)- and (2R,3R,11bR)-2-[2-Amino-3-(2,5-dimethyl-phenyl)-10-methoxy-1,3,4,6,7,11b-hexahydro-2H-pyrido[2,1-a]isoquinolin-9-yloxy]-acetamide, hydrochloride]	0.1
